Experiments:
[1] = Fraction unbound in mouse plasma; assay type: ADME, cell-free
Mus musculus = assay: Intrinsic clearance in mouse at 5 umol/kg, iv administered as bolus dose in 20 to 30% DMA in PBS; assay type: ADME, organism-based; conditions: in vivo
[2] = Clearance in dog at 5 umol/kg, iv administered as bolus dose in 20 to 30% DMA in PBS; assay type: ADME, organism-based, Canis lupus familiaris; conditions: in vivo
[3] = molecular target: Phosphatidylinositol 4,5-bisphosphate 3-kinase catalytic subunit gamma isoform (Homo sapiens, UniProt P48736); assay: Inhibition of human recombinant PI3Kgamma using PIP2 by Kinase-Glo Plus assay
[4] = Fraction unbound in dog plasma; assay type: ADME, cell-free, Canis lupus familiaris
Canis familiaris = assay: Intrinsic clearance in dog at 5 umol/kg, iv administered as bolus dose in 20 to 30% DMA in PBS; assay type: ADME, organism-based, Canis lupus familiaris; conditions: in vivo
[5] = Oral bioavailability in mouse at 30 umol/kg administered as propylene glycol; assay type: ADME, organism-based; conditions: in vivo
[6] = Volume of distribution in dog at 5 umol/kg, iv administered as bolus dose in 20 to 30% DMA in PBS; assay type: ADME, organism-based, Canis lupus familiaris; conditions: in vivo
[7] = Volume of distribution in mouse at 5 umol/kg, iv administered as bolus dose in 20 to 30% DMA in PBS; assay type: ADME, organism-based; conditions: in vivo
[8] = molecular target: T1, Phosphatidylinositol 4,5-bisphosphate 3-kinase catalytic subunit beta isoform (Homo sapiens, UniProt P42338); assay: Inhibition of human recombinant PI3Kbeta using PIP2 by Kinase-Glo Plus assay
[9] = Clearance in mouse at 5 umol/kg, iv administered as bolus dose in 20 to 30% DMA in PBS; assay type: ADME, organism-based; conditions: in vivo
[10] = Apparent permeability from apical to basolateral side of human Caco2 cells; assay type: ADME, cell-based; conditions: Caco-2, read-out: permeability
[11] = molecular target: T2, Phosphatidylinositol 4,5-bisphosphate 3-kinase catalytic subunit alpha isoform (Homo sapiens, UniProt P42336); assay: Inhibition of human recombinant PI3Kalpha using PIP2 by Kinase-Glo Plus assay
Target sequence in this assay (P42336 whole entry, canonical isoform): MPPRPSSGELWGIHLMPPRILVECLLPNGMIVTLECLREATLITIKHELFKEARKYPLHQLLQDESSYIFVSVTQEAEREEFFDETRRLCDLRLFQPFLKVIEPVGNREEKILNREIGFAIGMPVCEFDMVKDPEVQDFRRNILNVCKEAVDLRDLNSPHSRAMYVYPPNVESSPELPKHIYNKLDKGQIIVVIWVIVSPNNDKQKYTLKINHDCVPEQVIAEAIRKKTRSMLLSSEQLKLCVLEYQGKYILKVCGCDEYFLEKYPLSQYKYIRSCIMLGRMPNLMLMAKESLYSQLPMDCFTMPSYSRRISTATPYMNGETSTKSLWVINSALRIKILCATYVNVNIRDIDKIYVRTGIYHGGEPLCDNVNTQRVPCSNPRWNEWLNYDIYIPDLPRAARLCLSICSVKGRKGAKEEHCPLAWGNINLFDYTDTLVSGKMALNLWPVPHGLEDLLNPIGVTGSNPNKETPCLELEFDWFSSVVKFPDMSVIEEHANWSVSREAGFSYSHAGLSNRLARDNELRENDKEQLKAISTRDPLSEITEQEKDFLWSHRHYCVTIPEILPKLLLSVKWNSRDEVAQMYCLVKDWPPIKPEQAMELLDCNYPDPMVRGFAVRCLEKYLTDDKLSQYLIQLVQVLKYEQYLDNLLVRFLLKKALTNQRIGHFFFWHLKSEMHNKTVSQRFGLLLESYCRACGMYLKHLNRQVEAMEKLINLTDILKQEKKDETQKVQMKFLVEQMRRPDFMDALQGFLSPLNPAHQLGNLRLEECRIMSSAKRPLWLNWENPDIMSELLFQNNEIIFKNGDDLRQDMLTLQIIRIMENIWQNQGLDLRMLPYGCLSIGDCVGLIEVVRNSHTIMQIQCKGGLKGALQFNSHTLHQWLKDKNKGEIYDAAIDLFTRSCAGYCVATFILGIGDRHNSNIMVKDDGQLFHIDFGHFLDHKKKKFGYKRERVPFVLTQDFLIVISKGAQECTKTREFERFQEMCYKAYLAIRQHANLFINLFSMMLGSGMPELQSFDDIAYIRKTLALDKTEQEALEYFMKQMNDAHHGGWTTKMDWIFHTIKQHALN

[12] = molecular target: T2, Phosphatidylinositol 4,5-bisphosphate 3-kinase catalytic subunit alpha isoform; assay: Inhibition of PI3Kalpha mutant human BT474 cells assessed as inhibition of Akt phosphorylation at […] after 2 hrs; assay type: cell-based; conditions: bt-474
Target sequence in this assay (P42336 whole entry, looked up, canonical isoform): as the sequence (P42336 whole entry, canonical isoform) above

[13] = molecular target: T3, Phosphatidylinositol 4,5-bisphosphate 3-kinase catalytic subunit delta isoform (Homo sapiens, UniProt O00329); assay: Inhibition of human recombinant PI3Kdelta using PIP2 by Kinase-Glo Plus assay
T3 sequence (O00329 whole entry): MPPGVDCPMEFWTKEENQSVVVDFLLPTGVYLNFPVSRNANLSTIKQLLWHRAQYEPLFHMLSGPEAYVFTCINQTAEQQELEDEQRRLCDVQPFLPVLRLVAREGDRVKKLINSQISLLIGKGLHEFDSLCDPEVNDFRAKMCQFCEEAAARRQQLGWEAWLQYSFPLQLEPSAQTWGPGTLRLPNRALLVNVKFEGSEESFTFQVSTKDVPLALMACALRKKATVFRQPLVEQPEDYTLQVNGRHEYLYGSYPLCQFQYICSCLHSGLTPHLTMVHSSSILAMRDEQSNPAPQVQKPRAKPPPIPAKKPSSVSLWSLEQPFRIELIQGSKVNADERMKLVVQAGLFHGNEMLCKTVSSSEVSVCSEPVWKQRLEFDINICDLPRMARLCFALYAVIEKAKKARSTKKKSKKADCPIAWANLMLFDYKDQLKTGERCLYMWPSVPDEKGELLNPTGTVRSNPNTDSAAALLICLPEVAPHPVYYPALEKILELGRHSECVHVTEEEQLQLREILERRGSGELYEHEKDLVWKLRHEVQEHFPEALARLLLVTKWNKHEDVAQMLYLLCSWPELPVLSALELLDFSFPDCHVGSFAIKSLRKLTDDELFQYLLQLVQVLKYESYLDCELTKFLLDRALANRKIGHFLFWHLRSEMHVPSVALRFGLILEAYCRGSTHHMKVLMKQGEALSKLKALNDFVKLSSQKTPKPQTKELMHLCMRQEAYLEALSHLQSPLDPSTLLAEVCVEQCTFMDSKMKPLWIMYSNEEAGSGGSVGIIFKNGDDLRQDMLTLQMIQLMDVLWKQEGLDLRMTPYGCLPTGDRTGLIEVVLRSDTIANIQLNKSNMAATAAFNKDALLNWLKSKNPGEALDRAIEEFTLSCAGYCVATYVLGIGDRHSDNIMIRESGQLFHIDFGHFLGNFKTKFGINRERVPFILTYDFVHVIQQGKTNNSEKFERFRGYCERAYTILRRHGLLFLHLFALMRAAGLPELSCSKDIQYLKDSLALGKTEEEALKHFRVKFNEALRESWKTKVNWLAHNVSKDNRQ

[14] = AUC in mouse at 30 umol/kg, po administered as propylene glycol; assay type: ADME, organism-based; conditions: plasma
[15] = Intrinsic clearance in cryopreserved human hepatocytes measured per 10^6 cells; assay type: ADME, cell-based, Hepatocyte; conditions: read-out: CLH
[16] = Fraction unbound in human plasma; assay type: ADME, cell-free
[17] = Lipophilicity, log D of the compound at pH 7.4 by shake-flask method; assay type: physicochemical; conditions: buffer
[18] = molecular target: T1, Phosphatidylinositol 4,5-bisphosphate 3-kinase catalytic subunit beta isoform; assay: Inhibition of PI3Kbeta in PTEN-null human MDA-MB-468 cells assessed as inhibition of Akt phosphorylation after 2 hrs; assay type: cell-based
[19] = Oral bioavailability in dog at 30 umol/kg administered as propylene glycol; assay type: ADME, organism-based, Canis lupus familiaris; conditions: in vivo

Chain of Phosphatidylinositol 4,5-bisphosphate 3-kinase catalytic subunit gamma isoform (P48736 whole entry, canonical isoform): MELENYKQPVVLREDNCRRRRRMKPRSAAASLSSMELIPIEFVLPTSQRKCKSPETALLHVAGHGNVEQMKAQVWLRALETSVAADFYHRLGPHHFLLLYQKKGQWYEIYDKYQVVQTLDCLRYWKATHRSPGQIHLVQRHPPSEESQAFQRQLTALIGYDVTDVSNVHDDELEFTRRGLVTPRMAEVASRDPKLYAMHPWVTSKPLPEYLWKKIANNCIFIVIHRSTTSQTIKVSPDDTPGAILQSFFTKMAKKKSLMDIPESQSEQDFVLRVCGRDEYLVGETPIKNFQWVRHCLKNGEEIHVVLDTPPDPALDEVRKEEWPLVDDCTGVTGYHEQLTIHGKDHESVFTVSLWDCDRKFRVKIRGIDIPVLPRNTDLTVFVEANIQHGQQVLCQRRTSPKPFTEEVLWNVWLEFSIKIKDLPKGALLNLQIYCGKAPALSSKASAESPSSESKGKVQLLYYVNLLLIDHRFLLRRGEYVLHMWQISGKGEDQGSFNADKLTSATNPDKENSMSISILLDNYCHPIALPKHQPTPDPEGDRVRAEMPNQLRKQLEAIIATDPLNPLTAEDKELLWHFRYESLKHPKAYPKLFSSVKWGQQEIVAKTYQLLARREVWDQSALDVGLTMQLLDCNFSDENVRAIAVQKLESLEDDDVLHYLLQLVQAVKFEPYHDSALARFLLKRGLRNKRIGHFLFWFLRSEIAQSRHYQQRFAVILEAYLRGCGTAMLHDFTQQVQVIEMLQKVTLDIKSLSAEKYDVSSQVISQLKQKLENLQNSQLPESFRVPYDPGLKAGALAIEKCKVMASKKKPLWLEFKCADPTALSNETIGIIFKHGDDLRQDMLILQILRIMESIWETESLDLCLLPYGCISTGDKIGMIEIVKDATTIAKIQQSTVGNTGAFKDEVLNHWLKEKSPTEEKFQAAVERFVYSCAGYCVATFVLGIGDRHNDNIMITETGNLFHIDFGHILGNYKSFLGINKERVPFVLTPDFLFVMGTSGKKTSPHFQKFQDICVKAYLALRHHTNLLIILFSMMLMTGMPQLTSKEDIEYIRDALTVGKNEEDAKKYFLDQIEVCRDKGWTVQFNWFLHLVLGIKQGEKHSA
T1 sequence (P42338 whole entry, canonical isoform): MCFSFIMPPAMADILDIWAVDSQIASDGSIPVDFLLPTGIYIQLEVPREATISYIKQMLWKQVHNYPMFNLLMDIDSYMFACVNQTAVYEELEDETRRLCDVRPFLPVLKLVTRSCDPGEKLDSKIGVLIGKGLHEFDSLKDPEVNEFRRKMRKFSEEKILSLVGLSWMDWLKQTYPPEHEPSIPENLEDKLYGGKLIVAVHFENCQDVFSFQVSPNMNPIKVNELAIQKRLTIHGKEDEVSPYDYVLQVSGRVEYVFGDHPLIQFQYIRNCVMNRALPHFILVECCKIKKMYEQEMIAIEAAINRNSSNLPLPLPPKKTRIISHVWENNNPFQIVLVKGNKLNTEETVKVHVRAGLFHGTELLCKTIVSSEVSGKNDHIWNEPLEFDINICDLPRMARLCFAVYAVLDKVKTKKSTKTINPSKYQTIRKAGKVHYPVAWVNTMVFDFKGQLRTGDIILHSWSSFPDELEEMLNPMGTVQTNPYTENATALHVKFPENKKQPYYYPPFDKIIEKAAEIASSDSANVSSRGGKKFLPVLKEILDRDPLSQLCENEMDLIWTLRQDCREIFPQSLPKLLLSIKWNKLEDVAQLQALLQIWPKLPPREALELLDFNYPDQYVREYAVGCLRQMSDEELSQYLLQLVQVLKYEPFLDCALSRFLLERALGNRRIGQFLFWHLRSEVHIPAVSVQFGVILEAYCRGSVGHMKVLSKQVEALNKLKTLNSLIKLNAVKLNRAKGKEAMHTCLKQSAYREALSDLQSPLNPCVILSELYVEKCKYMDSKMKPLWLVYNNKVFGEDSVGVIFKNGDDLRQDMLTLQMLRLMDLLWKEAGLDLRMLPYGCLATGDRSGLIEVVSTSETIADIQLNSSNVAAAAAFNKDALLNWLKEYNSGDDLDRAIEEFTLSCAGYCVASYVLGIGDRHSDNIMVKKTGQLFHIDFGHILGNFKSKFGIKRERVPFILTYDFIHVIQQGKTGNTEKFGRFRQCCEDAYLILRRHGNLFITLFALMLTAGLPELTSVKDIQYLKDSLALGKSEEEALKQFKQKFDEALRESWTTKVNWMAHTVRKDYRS

SMILES: C[C@@H](Nc1cc(F)cc(F)c1F)c1cc(C(=O)N(C)C)cc2c(=O)cc(N3CCOCC3)oc12
- fraction unbound [1]: 0.28
- clearance (Mus musculus): 99 mL/min/kg
- clearance [2]: 28 mL/min/kg
- IC50 [3]: 1500 nM
- fraction unbound [4]: 0.43
- clearance (Canis familiaris): 16 mL/min/kg
- bioavailability [5]: 42%
- Vd [6]: 2.2 L/kg
- Vd [7]: 1.7 L/kg
- IC50 [8]: 8 nM
- clearance [9]: 137 mL/min/kg
- Papp A→B [10]: 16 ×10⁻⁶ cm/s
- IC50 [11]: 140 nM
- IC50 [12]: 900 nM
- IC50 [13]: 41 nM
- AUC [14]: 1.5 µM·h
- hepatocyte CLint [15]: < 5 µL/min/1e6 cells
- fraction unbound [16]: 0.27
- logD [17]: 2.3
- IC50 [18]: 6 nM
- bioavailability [19]: 47%

SMILES: C[C@@H](Nc1cccc(Cl)c1F)c1cc(C(=O)N(C)C)cc2c(=O)cc(N3CCOCC3)oc12
- clearance (Mus musculus): 64 mL/min/kg
- IC50 [3]: 320 nM
- fraction unbound [4]: 0.26
- bioavailability [5]: 19%
- Vd [7]: 1.7 L/kg
- IC50 [8]: 5 nM
- clearance [9]: 81 mL/min/kg
- Papp A→B [10]: 21 ×10⁻⁶ cm/s
- IC50 [11]: 28 nM
- IC50 [12]: 500 nM
- IC50 [13]: 22 nM
- AUC [14]: 0.9 µM·h
- hepatocyte CLint [15]: < 3 µL/min/1e6 cells
- fraction unbound [16]: 0.15
- logD [17]: 2.3
- IC50 [18]: 20 nM

SMILES: C[C@H](c1cc(C(=O)N(C)CCO)cc2c(=O)cc(N3CCOCC3)oc12)N(C)c1cc(F)cc(F)c1
- fraction unbound [1]: 0.15
- IC50 [3]: 1200 nM
- fraction unbound [4]: 0.23
- Papp A→B [10]: 7 ×10⁻⁶ cm/s
- IC50 [11]: 180 nM
- IC50 [12]: 4700 nM
- IC50 [13]: 53 nM
- AUC [14]: 0.7 µM·h
- hepatocyte CLint [15]: < 3 µL/min/1e6 cells
- fraction unbound [16]: 0.17
- logD [17]: 2.1

SMILES: CC(Nc1cc(F)cc(F)c1)c1cc(C(=O)N2CCC(O)CC2)cc2c(=O)cc(N3CCOCC3)oc12 (racemic)
- IC50 [3]: 830 nM
- IC50 [8]: 11 nM
- Papp A→B [10]: 1 ×10⁻⁶ cm/s
- IC50 [11]: 230 nM
- IC50 [12]: 6400 nM
- IC50 [13]: 90 nM
- hepatocyte CLint [15]: < 3 µL/min/1e6 cells
- logD [17]: 1.8
- IC50 [18]: 17 nM

SMILES: C[C@@H](Nc1ccc(F)c(F)c1)c1cc(C(=O)N(C)C)cc2c(=O)cc(N3CCOCC3)oc12
- fraction unbound [1]: 0.25
- clearance (Mus musculus): 57 mL/min/kg
- IC50 [3]: 2500 nM
- fraction unbound [4]: 0.34
- bioavailability [5]: 19%
- Vd [7]: 1.7 L/kg
- IC50 [8]: 7 nM
- clearance [9]: 112 mL/min/kg
- Papp A→B [10]: 6.5 ×10⁻⁶ cm/s
- IC50 [11]: 170 nM
- IC50 [12]: 2500 nM
- IC50 [13]: 32 nM
- AUC [14]: 0.8 µM·h
- hepatocyte CLint [15]: < 3 µL/min/1e6 cells
- fraction unbound [16]: 0.27
- logD [17]: 1.9
- IC50 [18]: 17 nM

SMILES: CC(Nc1cc(F)cc(F)c1)c1cc(C(=O)N2CCCC2)cc2c(=O)cc(N3CCOCC3)oc12 (racemic)
- IC50 [3]: 700 nM
- IC50 [8]: 9 nM
- Papp A→B [10]: 8.5 ×10⁻⁶ cm/s
- IC50 [11]: 98 nM
- IC50 [12]: 400 nM
- IC50 [13]: 50 nM
- hepatocyte CLint [15]: 6 µL/min/1e6 cells
- logD [17]: 2.7
- IC50 [18]: 2 nM

SMILES: CC(Nc1cc(F)cc(F)c1)c1cc(C(=O)N2CCOCC2)cc2c(=O)cc(N3CCOCC3)oc12 (racemic)
- IC50 [3]: 2400 nM
- IC50 [8]: 11 nM
- Papp A→B [10]: 4.8 ×10⁻⁶ cm/s
- IC50 [11]: 300 nM
- IC50 [12]: 6000 nM
- IC50 [13]: 115 nM
- hepatocyte CLint [15]: < 3 µL/min/1e6 cells
- logD [17]: 1.7
- IC50 [18]: 33 nM

SMILES: C[C@H](c1cc(C(=O)N2CCC(O)CC2)cc2c(=O)cc(N3CCOCC3)oc12)N(C)c1cc(F)cc(F)c1
- fraction unbound [1]: 0.18
- IC50 [3]: 1600 nM
- fraction unbound [4]: 0.23
- IC50 [8]: 7 nM
- Papp A→B [10]: 4.6 ×10⁻⁶ cm/s
- IC50 [11]: 370 nM
- IC50 [12]: 4800 nM
- IC50 [13]: 82 nM
- AUC [14]: 0.8 µM·h
- hepatocyte CLint [15]: < 3 µL/min/1e6 cells
- fraction unbound [16]: 0.17
- logD [17]: 2.4
- IC50 [18]: 12 nM

SMILES: CC(Nc1cc(F)cc(F)c1)c1cc(C(=O)N(C)CCO)cc2c(=O)cc(N3CCOCC3)oc12 (racemic)
- IC50 [3]: 530 nM
- IC50 [8]: 10 nM
- Papp A→B [10]: 1 ×10⁻⁶ cm/s
- IC50 [11]: 90 nM
- IC50 [12]: 6900 nM
- IC50 [13]: 62 nM
- hepatocyte CLint [15]: < 3 µL/min/1e6 cells
- logD [17]: 1.5
- IC50 [18]: 15 nM

SMILES: COCCNC(=O)c1cc(C(C)Nc2cc(F)cc(F)c2)c2oc(N3CCOCC3)cc(=O)c2c1 (racemic)
- IC50 [3]: 520 nM
- IC50 [8]: 9 nM
- Papp A→B [10]: 0.28 ×10⁻⁶ cm/s
- IC50 [11]: 57 nM
- IC50 [12]: 13000 nM
- IC50 [13]: 54 nM
- hepatocyte CLint [15]: < 3 µL/min/1e6 cells
- logD [17]: 2.1
- IC50 [18]: 31 nM

SMILES: C[C@@H](Nc1cc(F)cc(Cl)c1)c1cc(C(=O)N(C)C)cc2c(=O)cc(N3CCOCC3)oc12
- fraction unbound [1]: 0.04
- clearance (Mus musculus): 147 mL/min/kg
- IC50 [3]: 210 nM
- fraction unbound [4]: 0.14
- bioavailability [5]: 23%
- Vd [7]: 3.5 L/kg
- clearance [9]: 134 mL/min/kg
- Papp A→B [10]: 11 ×10⁻⁶ cm/s
- IC50 [11]: 25 nM
- IC50 [12]: 170 nM
- IC50 [13]: 28 nM
- AUC [14]: 0.8 µM·h
- hepatocyte CLint [15]: 12 µL/min/1e6 cells
- fraction unbound [16]: 0.06
- logD [17]: 2.8

SMILES: C[C@@H](Oc1cc(F)cc(F)c1)c1cc(C(=O)N(C)C)cc2c(=O)cc(N3CCOCC3)oc12
- IC50 [3]: 13000 nM
- IC50 [8]: 17 nM
- Papp A→B [10]: 31 ×10⁻⁶ cm/s
- IC50 [11]: 970 nM
- IC50 [12]: 7400 nM
- IC50 [13]: 160 nM
- hepatocyte CLint [15]: 7 µL/min/1e6 cells
- logD [17]: 2.2
- IC50 [18]: 132 nM

Reference: ChEMBL document CHEMBL3407416, “Discovery of (R)-8-(1-(3,5-difluorophenylamino)ethyl)-N,N-dimethyl-2-morpholino-4-oxo-4H-chromene-6-carboxamide (AZD8186): a potent and selective inhibitor of PI3Kβ and PI3Kδ for the treatment of PTEN-deficient cancers” (J Med Chem, 2015)
